Reference: PubChem BioAssay AID256 (DTP/NCI, 2004)
Several values for one entry are separate records, joined by “and”; a condition that tells them apart may be missing. Equal values may be shown once. Toxic doses and inconclusive results are not listed. The calls were made as follows: active = survival T/C of 150% or more; inactive = T/C below 125% in these data.

System: CD2F1 mice, L1210 leukemia ip, survival T/C
Assay: NCI In Vivo Anticancer Drug Screen. Data for tumor model L1210 Leukemia (intraperitoneal) in CD2F1 (CDF1) mice
Conditions: higher = longer survival
Procedure, shortened: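 Read-out first: treated-group measurement over vehicle-control measurement, expressed as a ratio. Animals bore a transplanted tumor line and were dosed with compound or vehicle.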

[1] = endpoint: mean survival time, dose: 100.0 mg/kg/injection, schedule: Q04DX003 (ip), vehicle: saline with Tween-80
[2] = endpoint: mean survival time, dose: 200.0 mg/kg/injection, schedule: Q04DX003 (ip), vehicle: saline with Tween-80
[3] = endpoint: mean survival time, dose: 400.0 mg/kg/injection, schedule: Q04DX003 (ip), vehicle: saline with Tween-80
[4] = endpoint: mean survival time, dose: 50.0 mg/kg/injection, schedule: Q01DX009 (ip), vehicle: saline with Tween-80
[5] = endpoint: mean survival time, dose: 100.0 mg/kg/injection, schedule: Q01DX009 (ip), vehicle: saline with Tween-80
[6] = endpoint: mean survival time, dose: 200.0 mg/kg/injection, schedule: Q01DX009 (ip), vehicle: saline with Tween-80
[7] = endpoint: mean survival time, dose: 400.0 mg/kg/injection, schedule: Q01DX009 (ip), vehicle: saline with Tween-80
[8] = endpoint: mean survival time, dose: 100.0 mg/kg/injection, schedule: Q01DX009 (ip), vehicle: Klucel (hydroxypropylcellulose) (HPC)
[9] = endpoint: mean survival time, dose: 200.0 mg/kg/injection, schedule: Q01DX009 (ip), vehicle: Klucel (hydroxypropylcellulose) (HPC)
[10] = endpoint: mean survival time, dose: 100.0 mg/kg/injection, schedule: Q01DX001 (ip), vehicle: saline with Tween-80
[11] = endpoint: mean survival time, dose: 200.0 mg/kg/injection, schedule: Q01DX001 (ip), vehicle: saline with Tween-80
[12] = endpoint: mean survival time, dose: 400.0 mg/kg/injection, schedule: Q01DX001 (ip), vehicle: saline with Tween-80

Measured: T/C

COC(=O)CC(O)(CCCC(C)(C)O)C(=O)OC1C(OC)=CC23CCCN2CCc2cc4c(cc2C13)OCO4 (stereo not drawn) (tested in a mixture with another compound)
inactive: endpoint: mean survival time, dose: 0.25 mg/kg/injection, schedule: Q01DX009 (ip), vehicle: saline with Tween-80 112 % of control | endpoint: mean survival time, dose: 0.5 mg/kg/injection, schedule: Q01DX009 (ip), vehicle: saline with Tween-80 115 % of control | endpoint: mean survival time, dose: 1.0 mg/kg/injection, schedule: Q01DX009 (ip), vehicle: saline with Tween-80 115 % of control | endpoint: mean survival time, dose: 2.0 mg/kg/injection, schedule: Q01DX009 (ip), vehicle: saline with Tween-80 124 % of control

COc1ccc(C2=NNC(=O)CC2)cc1OC
inactive: endpoint: mean survival time, dose: 12.5 mg/kg/injection, schedule: Q04DX003 (ip), vehicle: saline 107 % of control | endpoint: mean survival time, dose: 25.0 mg/kg/injection, schedule: Q04DX003 (ip), vehicle: saline 115 % of control | endpoint: mean survival time, dose: 50.0 mg/kg/injection, schedule: Q04DX003 (ip), vehicle: saline 98 % of control

NC(=S)N/N=C1/CCN2CCCc3cccc1c32
inactive: endpoint: mean survival time, dose: 5.0 mg/kg/injection, schedule: Q01DX001 (ip), vehicle: saline with Tween-80 98 % of control | endpoint: mean survival time, dose: 10.0 mg/kg/injection, schedule: Q01DX001 (ip), vehicle: saline with Tween-80 97 % of control | endpoint: mean survival time, dose: 20.0 mg/kg/injection, schedule: Q01DX001 (ip), vehicle: saline with Tween-80 98 % of control

CCOC(=O)CN1CCC2CC1c1c([nH]c3ccccc13)C2c1cc2c(cc1OC)N(C)C1C(O)(C(=O)OC)C(OC(C)=O)C3(CC)C=CCN4CCC21C43 (stereo not drawn)
inactive: endpoint: mean survival time, dose: 0.06 mg/kg/injection, schedule: Q01DX009 (ip), vehicle: other 87 % of control | endpoint: mean survival time, dose: 0.13 mg/kg/injection, schedule: Q01DX009 (ip), vehicle: other 97 % of control | endpoint: mean survival time, dose: 0.25 mg/kg/injection, schedule: Q01DX009 (ip), vehicle: other 92 % of control | endpoint: mean survival time, dose: 0.5 mg/kg/injection, schedule: Q01DX009 (ip), vehicle: other 92 % of control | endpoint: mean survival time, dose: 1.0 mg/kg/injection, schedule: Q01DX009 (ip), vehicle: other 97 % of control | endpoint: mean survival time, dose: 2.0 mg/kg/injection, schedule: Q01DX009 (ip), vehicle: other 90 % of control

OCCN=Cc1ccc(OCc2ccccc2)c(OCc2ccccc2)c1
inactive: endpoint: median survival time, dose: 50.0 mg/kg/injection, schedule: Q04DX002 (ip), vehicle: saline with Tween-80 100 % of control | endpoint: median survival time, dose: 100.0 mg/kg/injection, schedule: Q04DX002 (ip), vehicle: saline with Tween-80 111 % of control | endpoint: median survival time, dose: 200.0 mg/kg/injection, schedule: Q04DX002 (ip), vehicle: saline with Tween-80 88 % of control | endpoint: median survival time, dose: 400.0 mg/kg/injection, schedule: Q04DX002 (ip), vehicle: saline with Tween-80 100 % of control

BrC1=CC2C3C=CC(c4ccccc43)C12 (stereo not drawn)
inactive: [1] 95 % of control | [2] 95 % of control | [3] 96 % of control

O=c1nc(Oc2ccccc2)nc2ncccn12
inactive: endpoint: mean survival time, dose: 3.12 mg/kg/injection, schedule: Q01DX009 (ip), vehicle: saline with Tween-80 100 % of control and 108 % of control | endpoint: mean survival time, dose: 6.25 mg/kg/injection, schedule: Q01DX009 (ip), vehicle: saline with Tween-80 100 % of control and 101 % of control | endpoint: mean survival time, dose: 12.5 mg/kg/injection, schedule: Q01DX009 (ip), vehicle: saline with Tween-80 97 % of control and 101 % of control | endpoint: mean survival time, dose: 25.0 mg/kg/injection, schedule: Q01DX009 (ip), vehicle: saline with Tween-80 98 % of control and 99 % of control | [4] 97 % of control and 102 % of control

CC1=Nc2cc(Cl)c(Cl)cc2N(C)/C1=C/C1=C(Cl)C(=O)c2cc3c(Cl)ccc(Cl)c3cc2C1=O
inactive: [1] 94 % of control | [2] 97 % of control

Nc1cc(Cl)c(N)c(N)n1
inactive: [5] 100 % of control | [6] 91 % of control

CCCCCCCCCCC(CCCCCCCCCC)c1ccccc1
inactive: endpoint: mean survival time, dose: 100.0 mg/kg/injection, schedule: Q01DX001 (ip), vehicle: saline sonified 108 % of control | endpoint: mean survival time, dose: 200.0 mg/kg/injection, schedule: Q01DX001 (ip), vehicle: saline sonified 104 % of control | endpoint: mean survival time, dose: 400.0 mg/kg/injection, schedule: Q01DX001 (ip), vehicle: saline sonified 114 % of control

CN(C=O)c1ccc(C(=O)NC(CCC(=O)OCc2ccccc2)C(=O)OCc2ccccc2)cc1 (stereo not drawn)
inactive: [5] 94 % of control | [1] 105 % of control | [6] 89 % of control | [2] 92 % of control | [7] 89 % of control | [3] 89 % of control

O=C(OCC1OC([Se])C(OC(=O)c2ccccc2)C(OC(=O)c2ccccc2)C1OC(=O)c1ccccc1)c1ccccc1.[CH3][Sb][CH3] (stereo not drawn)
inactive: endpoint: mean survival time, dose: 50.0 mg/kg/injection, schedule: Q01DX009 (ip), vehicle: Klucel (hydroxypropylcellulose) (HPC) 100 % of control | [8] 103 % of control | [9] 100 % of control

COc1ccccc1OC(=O)CCl
inactive: [1] 111 % of control | [2] 101 % of control | [3] 88 % of control

O=[N+]([O-])c1ccc2c(c1)-c1[nH]c3ccccc3c1CS2
inactive: [8] 102 % of control | [9] 101 % of control

CC(=Nc1ccccc1)c1cccs1
inactive: [1] 95 % of control | [2] 101 % of control | [3] 87 % of control

COC(=O)c1ncccc1C(=O)O
inactive: [1] 94 % of control | [2] 86 % of control | [3] 86 % of control

O=C(Nc1ccc(Br)c2c(NC(=O)c3ccccc3)ccc(Br)c12)c1ccccc1
inactive: [5] 88 % of control and 93 % of control | [6] 97 % of control | [7] 93 % of control

Cc1cc(SC(=O)N(C)C)c(S(=O)(=O)F)cc1Cl
inactive: endpoint: mean survival time, dose: 100.0 mg/kg/injection, schedule: Q04DX002 (ip), vehicle: saline with Tween-80 87 % of control | endpoint: mean survival time, dose: 200.0 mg/kg/injection, schedule: Q04DX002 (ip), vehicle: saline with Tween-80 87 % of control | endpoint: mean survival time, dose: 400.0 mg/kg/injection, schedule: Q04DX002 (ip), vehicle: saline with Tween-80 93 % of control

COC(=O)c1cccc2c1/C(=N/NC(N)=S)c1ccccc1-2
inactive: endpoint: mean survival time, dose: 50.0 mg/kg/injection, schedule: Q01DX001 (ip), vehicle: carboxymethylcellulose (CMC) 102 % of control | endpoint: mean survival time, dose: 100.0 mg/kg/injection, schedule: Q01DX001 (ip), vehicle: carboxymethylcellulose (CMC) 98 % of control | endpoint: mean survival time, dose: 200.0 mg/kg/injection, schedule: Q01DX001 (ip), vehicle: carboxymethylcellulose (CMC) 102 % of control | endpoint: mean survival time, dose: 400.0 mg/kg/injection, schedule: Q01DX001 (ip), vehicle: carboxymethylcellulose (CMC) 102 % of control

CCOc1ccncc1[N+](=O)[O-]
inactive: endpoint: mean survival time, dose: 100.0 mg/kg/injection, schedule: Q01DX009 (ip), vehicle: saline sonified 96 % of control | endpoint: mean survival time, dose: 100.0 mg/kg/injection, schedule: Q04DX003 (ip), vehicle: saline sonified 95 % of control | endpoint: mean survival time, dose: 200.0 mg/kg/injection, schedule: Q04DX003 (ip), vehicle: saline sonified 95 % of control | endpoint: mean survival time, dose: 400.0 mg/kg/injection, schedule: Q04DX003 (ip), vehicle: saline sonified 86 % of control

Nc1nc2c(ncn2-c2cccc(NC(=O)c3cc(S(=O)(=O)F)ccc3Cl)c2)c(=O)[nH]1
inactive: [10] 88 % of control | [11] 94 % of control | [12] 94 % of control

O=C1/C(=C\c2ccccc2)C2CCC(C2)/C1=C\c1ccccc1
inactive: [10] 91 % of control | [11] 88 % of control | [12] 97 % of control

CSc1nc(C)cc(Cl)n1
inactive: [4] 94 % of control | [5] 92 % of control | [1] 103 % of control | [6] 95 % of control | [2] 97 % of control

C1CCC(C2CCCC[N-]2)[N-]C1.O=C(O)C1CCC[N-]1.[Cl][Pt] (stereo not drawn)
inactive: endpoint: median survival time, dose: 10.0 mg/kg/injection, schedule: Q04DX003 (ip), vehicle: saline 103 % of control | endpoint: median survival time, dose: 20.0 mg/kg/injection, schedule: Q04DX003 (ip), vehicle: saline 101 % of control | endpoint: median survival time, dose: 40.0 mg/kg/injection, schedule: Q04DX003 (ip), vehicle: saline 98 % of control | endpoint: median survival time, dose: 80.0 mg/kg/injection, schedule: Q04DX003 (ip), vehicle: saline 98 % of control and 104 % of control | endpoint: median survival time, dose: 160.0 mg/kg/injection, schedule: Q04DX003 (ip), vehicle: saline 104 % of control

c1ccc(-c2nn[nH]n2)nc1
inactive: endpoint: mean survival time, dose: 100.0 mg/kg/injection, schedule: Q01DX001 (ip), vehicle: saline 101 % of control | endpoint: mean survival time, dose: 100.0 mg/kg/injection, schedule: Q04DX003 (ip), vehicle: saline 90 % of control and 104 % of control | endpoint: mean survival time, dose: 200.0 mg/kg/injection, schedule: Q01DX001 (ip), vehicle: saline 101 % of control | endpoint: mean survival time, dose: 200.0 mg/kg/injection, schedule: Q04DX003 (ip), vehicle: saline 102 % of control and 104 % of control | endpoint: mean survival time, dose: 400.0 mg/kg/injection, schedule: Q04DX003 (ip), vehicle: saline 94 % of control and 108 % of control

O=c1[nH]c2cc3ccccc3cc2c(=O)o1
inactive: [1] 92 % of control | [2] 88 % of control | [3] 98 % of control
